Consider 26 compounds from patent US10092575B2, “Substituted thiophene- and furan-fused azolopyrimidine-5-(6H)-one compounds” (DART NEUROSCIENCE (CAYMAN) LTD., priority 2012, dated 2018).

In one experiment the target is human PDE1b enzyme (Homo sapiens (Human), UniProt Q01064). The experiment in a line: PDE1b inhibitory assay (IMAP TR-FRET). To be noted: for PDE1b (pEC50): negative log of half-maximal molar inhibitory concentration, 200 nM FAM-cAMP, reported as ranges. Background: TR-FRET usually uses a lanthanide donor and a delayed reading to cut background.
The subject of the next experiment is NS1 cells. The experiment is described as follows: Neurite outgrowth (NOG) assay. It is filed as cell-based. As for the experimental part:
Neuroscreen 1 (NS1) Cells (Cellomics Inc.) were cultured on collagen type I coated 75 cm2 plastic flasks (Biocoat, Becton Dickinson) in a humidified incubator at 37° C. in 5% CO2. Cells were cultured in RPMI complete cell culture medium (Cambrex) supplemented with 10% heat-inactivated horse serum (Invitrogen), 5% heat-inactivated fetal bovine serum (Cellgro), and 2 mM L-glutamine (Cambrex). For expansion, the cells were trypsinized and split at 80% confluence. Cell culture media was changed every 2 to 3 days.
NS1 cells were harvested and counted using a Coulter counter (Becton Dickinson Coulter Z1). Cells were seeded in 96-well collagen I coated plates at a density of 2000 cells per well in volume of […]. RPMI media was supplemented with 200 ng/ml nerve growth factor (NGF, Sigma). NS1 cells were incubated for 72 hours to allow differentiation to a neuronal phenotype. […]
Antibody-stained 96-well plates were stored at 4° C. in the dark until scanning. […] The neurite outgrowth assay is based on two channels to scanning: (1) Channel 1, which detects the Hoechst Dye and is used by the software to identify cells and for automated focusing; and (2) Channel 2, which detects the FITC fluorescence of the secondary antibody and is used by the software to calculate all data generated in reference to neurites. […]

The EC50 is the concentration needed to bring the measured effect to its halfway point. At human PDE1b enzyme, `CCN(Cc1cc2c(s1)n(Cc1ccc(OC)cc1)c(=O)n1ncnc21)C1CCOC(C)(C)C1` (stereo not drawn) [Example 196] had an EC50 of 1 to 10 µM.

The compound `CCN(Cc1csc2c1c1ncnn1c(=O)n2Cc1ccc(OC)cc1)CC1CCOCC1` [Example 197, 9-((Ethyl((tetrahydro-2H-pyran-4-yl)methyl)amino)methyl)-6-(4-methoxybenzyl)thieno[3,2-e][1,2,4]triazolo[1,5-c]pyrimidin-5(6H)-one] returned an EC50 at human PDE1b enzyme of 0.1 to 1 µM.

`CCN(Cc1cc2c(s1)n(Cc1ccc(OC)cc1)c(=O)n1ncnc21)CC1CCOCC1` [Example 198, 8-((Ethyl((tetrahydro-2H-pyran-4-yl)methyl)amino)methyl)-6-(4-methoxybenzyl)thieno[3,2-e][1,2,4]triazolo[1,5-c]pyrimidin-5(6H)-one]: the EC50 at human PDE1b enzyme lay within 1 to 10 µM.

In the case of `COc1ccc(Cn2c(=O)n3ncnc3c3c(CN(C)CC4CCOCC4)csc32)cc1` [Example 199, 6-(4-Methoxybenzyl)-9-((methyl((tetrahydro-2H-pyran-4-yl)methyl)amino)methyl)thieno[3,2-e][1,2,4]triazolo[1,5-c]pyrimidin-5(6H)-one], the “PDE1b (pEC50)” value at human PDE1b enzyme is listed as more than 7.

For the compound `COc1ccc(Cn2c(=O)n3ncnc3c3cc(CN4C[C@@H](C)O[C@@H](C)C4)sc32)c(F)c1F` [Example 200, 6-(2,3-Difluoro-4-methoxybenzyl)-8-(((2R,6S)-2,6-dimethylmorpholino)methyl)thieno[3,2-e][1,2,4]triazolo[1,5-c]pyrimidin-5(6H)-one], at human PDE1b enzyme, the 50% effective concentration (EC50) lay within 1 to 10 µM.

`COc1ccc(Cn2c(=O)n3ncnc3c3cc(CN4C[C@@H](C)O[C@@H](C)C4)sc32)cc1F` [Example 201, 8-(((2R,6S)-2,6-Dimethylmorpholino)methyl)-6-(3-fluoro-4-methoxybenzyl)thieno[3,2-e][1,2,4]triazolo[1,5-c]pyrimidin-5(6H)-one]: the “PDE1b (pEC50)” value on human PDE1b enzyme is given as more than 7.

On to `COc1ccc(Cn2c(=O)n3ncnc3c3c(CNCC4CCOCC4)csc32)cc1` [Example 203, 6-(4-Methoxybenzyl)-9-((((tetrahydro-2H-pyran-4-yl)methyl)amino)methyl)thieno[3,2-e][1,2,4]triazolo[1,5-c]pyrimidin-5(6H)-one], for which the “PDE1b (pEC50)” value at human PDE1b enzyme is more than 7.

`COc1ccc(Cn2c(=O)n3ncnc3c3cc(CN(C)C4CCOCC4)sc32)cc1` [Example 204, 6-(4-Methoxybenzyl)-8-((methyl(tetrahydro-2H-pyran-4-yl)amino)methyl)thieno[3,2-e][1,2,4]triazolo[1,5-c]pyrimidin-5(6H)-one] showed an EC50 on human PDE1b enzyme of 1 to 10 µM.

With `C[C@@H]1CN(Cc2cc3c(s2)n(Cc2ccc(F)c(Cl)c2)c(=O)n2ncnc32)C[C@H](C)O1` [Example 205, 6-(3-Chloro-4-fluorobenzyl)-8-(((2R,6S)-2,6-dimethylmorpholino)methyl)thieno[3,2-e][1,2,4]triazolo[1,5-c]pyrimidin-5(6H)-one], the “PDE1b (pEC50)” value on human PDE1b enzyme is more than 7.

For the compound `COc1ccc(Cn2c(=O)n3ncnc3c3cc(CN4CCS(=O)(=O)CC4)sc32)cc1` [Example 206, 8-((1,1-Dioxidothiomorpholino)methyl)-6-(4-methoxybenzyl)thieno[3,2-e][1,2,4]triazolo[1,5-c]pyrimidin-5(6H)-one], the “PDE1b (pEC50)” value on human PDE1b enzyme is recorded as more than 7.

For the compound `COc1ccc(Cn2c(=O)n3ncnc3c3cc(CN4CCOCC4)sc32)cc1F` [Example 207, 6-(3-Fluoro-4-methoxybenzyl)-8-(morpholinomethyl)thieno[3,2-e][1,2,4]triazolo[1,5-c]pyrimidin-5(6H)-one], the “PDE1b (pEC50)” value at human PDE1b enzyme is reported as more than 7.

Take `COc1ccc(Cn2c(=O)n3ncnc3c3cc(CN4CCOCC4)sc32)c(F)c1` [Example 208, 6-(2-Fluoro-4-methoxybenzyl)-8-(morpholinomethyl)thieno[3,2-e][1,2,4]triazolo[1,5-c]pyrimidin-5(6H)-one]: the EC50 on human PDE1b enzyme was in the range of 0.1 to 1 µM.

In the case of `O=c1n(Cc2ccc(F)c(Cl)c2)c2sc(CN3CCOCC3)cc2c2ncnn12` [Example 209, 6-(3-Chloro-4-fluorobenzyl)-8-(morpholinomethyl)thieno[3,2-e][1,2,4]triazolo[1,5-c]pyrimidin-5(6H)-one], the “PDE1b (pEC50)” value on human PDE1b enzyme is reported as more than 7.

As to `COc1ccc(Cn2c(=O)n3ncnc3c3cc(CN(C)CC4(C)COC4)sc32)c(F)c1F` [Example 210, 6-(2,3-Difluoro-4-methoxybenzyl)-8-((methyl((3-methyloxetan-3-yl)methyl)amino)methyl)thieno[3,2-e][1,2,4]triazolo[1,5-c]pyrimidin-5(6H)-one], the concentration for a half-maximal effect (EC50) at human PDE1b enzyme lay in the range of 0.1 to 1 µM.

On to `COc1ccc(Cn2c(=O)n3ncnc3c3cc(CNCC4(C)COC4)sc32)cc1` [Example 211], for which the half-maximal effective concentration (EC50) at human PDE1b enzyme fell in the range of 0.1 to 1 µM.

As to `COc1ccc(Cn2c(=O)n3ncnc3c3cc(CN4CC(O)C4)sc32)c(F)c1F` [Example 212, 6-(2,3-Difluoro-4-methoxybenzyl)-8-((3-hydroxyazetidin-1-yl)methyl)thieno[3,2-e][1,2,4]triazolo[1,5-c]pyrimidin-5(6H)-one], the EC50 on human PDE1b enzyme is 0.1 to 1 µM.

In the case of `COc1ccc(Cn2c(=O)n3ncnc3c3cc(CN4CC(O)C4)sc32)c(F)c1` [Example 213, 6-(2-Fluoro-4-methoxybenzyl)-8-((3-hydroxyazetidin-1-yl)methyl)thieno[3,2-e][1,2,4]triazolo[1,5-c]pyrimidin-5(6H)-one], the EC50 on human PDE1b enzyme fell in the range of 0.1 to 1 µM.

Consider `COc1ccc(Cn2c(=O)n3ncnc3c3cc(CN(C)C)sc32)c(F)c1F` [Example 214, 6-(2,3-Difluoro-4-methoxybenzyl)-8-((dimethylamino)methyl)thieno[3,2-e][1,2,4]triazolo[1,5-c]pyrimidin-5(6H)-one], for which the 50% effective concentration (EC50) at human PDE1b enzyme lay in the range of 0.1 to 1 µM.

On human PDE1b enzyme, `COc1ccc(Cn2c(=O)n3ncnc3c3c(CN(C(C)C)C(C)C)csc32)cc1` [Example 215, 9-((Diisopropylamino)methyl)-6-(4-methoxybenzyl)thieno[3,2-e][1,2,4]triazolo[1,5-c]pyrimidin-5(6H)-one] displayed a 50% effective concentration (EC50) of 0.1 to 1 µM.

Take `COc1ccc(Cn2c(=O)n3ncnc3c3c4c(sc32)CCN(CC2CCOCC2)C4)cc1` [Example 216, 6-(4-Methoxybenzyl)-10-((tetrahydro-2H-pyran-4-yl)methyl)-8,9,10,11-tetrahydropyrido[3′,4′:4,5]thieno[3,2-e][1,2,4]triazolo[1,5-c]pyrimidin-5(6H)-one]: the “PDE1b (pEC50)” value at human PDE1b enzyme is recorded as less than 5.

As to `COc1ccc(Cn2c(=O)n3ncnc3c3c4c(sc32)CNCCC4)cc1` [Example 217, 6-(4-Methoxybenzyl)-6,8,9,10,11,12-hexahydro-5H-[1,2,4]triazolo[1″,5″:1′,6′]pyrimido[5′,4′:4,5]thieno[2,3-c]azepin-5-one], the “PDE1b (pEC50)” value at human PDE1b enzyme is recorded as more than 7.

Consider `COc1ccc(Cn2c(=O)n3ncnc3c3c4c(sc32)CN(CC(C)C)CC4(F)F)cc1` [Example 218, 11,11-Difluoro-9-isobutyl-6-(4-methoxybenzyl)-8,9,10,11-tetrahydropyrido[4′,3′:4,5]thieno[3,2-e][1,2,4]triazolo[1,5-c]pyrimidin-5 (6H)-one], for which, on human PDE1b enzyme, the EC50 is 0.1 to 1 µM.

Turning to `COc1ccc(Cn2c(=O)n3ncnc3c3c4c(sc32)CNCC4(F)F)cc1` [Example 219, 11,11-Difluoro-6-(4-methoxybenzyl)-8,9,10,11-tetrahydropyrido[4′,3′:4,5]thieno[3,2-e][1,2,4]triazolo[1,5-c]pyrimidin-5 (6H)-one], the “PDE1b (pEC50)” value at human PDE1b enzyme is listed as more than 7.

For the compound `COc1ccc(Cn2c(=O)n3ncnc3c3c4c(sc32)NCCC4)cc1` [Example 220, 6-(4-Methoxybenzyl)-8,9,10,11-tetrahydropyrido[3′,2′:4,5]thieno[3,2-e][1,2,4]triazolo[1,5-c]pyrimidin-5(6H)-one], on human PDE1b enzyme, the “PDE1b (pEC50)” value is recorded as more than 7.

`COc1ccc(Cn2c(=O)n3ncnc3c3c4c(sc32)NCCC4)cc1` [Example 221, 6-(4-Methoxybenzyl)-8,9,10,11-tetrahydropyrido[3′,2′:4,5]thieno[3,2-e][1,2,4]triazolo[1,5-c]pyrimidin-5(6H)-one]: on human PDE1b enzyme, the 50% effective concentration (EC50) was in the range of 0.1 to 1 µM.

`COc1ccc(C2CNC(=O)C2)cc1OC1CCCC1` (stereo not drawn) [Rolipram]: the “neurite length and branching / neurite outgrowth” value in the experiment with NS1 cells (alone, without forskolin) is reported as “not affected”; in the experiment on NS1 cells (in combination with forskolin) it was “enhanced in dose-dependent manner”.
